Source: ChEMBL document CHEMBL3885861, “Open TG-GATES”

Organism: Rattus norvegicus
Test: Open TG-GATES - Regimen: Single
Assay type: toxicity, organism-based, Sprague-Dawley
Design: regimen Single, gender Male, age 6 weeks
Details: in vivo, po, 30 mg/kg, route gavage, dose level Low; for APTT / Bas / Eos / Fbg / Hb / Ht / Lym / MCH / MCHC / MCV / Mono / Neu / PT / Plat / RBC / Ret / WBC: tissue Blood; for KIDNEY_L / KIDNEY_R / KIDNEY_TOTAL: tissue Kidney; for LIVER: tissue Liver; for A/G / ALP / ALT / AST / BUN / CRE / Ca / Cl / DBIL / GLC / IP / K / LDH / Na / PL / RALB / TBIL / TC / TG / TP / gamma-GTP: tissue Plasma

## CC[C@H]1[C@@H]2C[C@H]3[C@@H]4N(C)c5ccccc5[C@]45C[C@@H]([C@@H]2[C@H]5O)N3[C@@H]1O [AJMALINE]
3 h
  TERMINAL_BW: 194.7 g
  APTT: 16.9 s
  Bas: 0%
  Eos: 1%
  Fbg: 196.4 mg/dL
  Hb: 12.8 g/dL
  Ht: 39.1%
  Lym: 78.6%
  MCH: 21.7 pg
  MCHC: 32.8%
  MCV: 66.3 fL
  Mono: 8.8%
  Neu: 12%
  PT: 11.6 s
  Plat: 121.5 x10_4/uL
  RBC: 590.6 x10_4/ul
  Ret: 12.4%
  WBC: 114.3 x10_2/uL
  KIDNEY_L: 0.9 g
  KIDNEY_R: 0.9 g
  KIDNEY_TOTAL: 1.8 g
  LIVER: 9.1 g
  A/G: 2.3
  ALP: 821 IU/L
  ALT: 34.8 IU/L
  AST: 69.8 IU/L
  BUN: 12.2 mg/dL
  CRE: 0.4 mg/dL
  Ca: 11.3 mg/dL
  Cl: 102.4 meq/L
  DBIL: 0.052 mg/dL
  GLC: 193.6 mg/dL
  IP: 9 mg/dL
  K: 4.5 meq/L
  LDH: 108 IU/L
  Na: 137.8 meq/L
  PL: 141.6 mg/dL
  RALB: 3.7 g/dL
  TBIL: 0.4 mg/dL
  TC: 77.4 mg/dL
  TG: 55.8 mg/dL
  TP: 5.3 g/dL
  gamma-GTP: 1.6 IU/L
6 h
  TERMINAL_BW: 190.9 g
  APTT: 17.2 s
  Bas: 0%
  Eos: 1.2%
  Fbg: 205 mg/dL
  Hb: 12.8 g/dL
  Ht: 38.9%
  Lym: 74%
  MCH: 22.2 pg
  MCHC: 33%
  MCV: 67.2 fL
  Mono: 7%
  Neu: 18.2%
  PT: 11.8 s
  Plat: 114.2 x10_4/uL
  RBC: 578.4 x10_4/ul
  Ret: 11.9%
  WBC: 89.1 x10_2/uL
  KIDNEY_L: 0.9 g
  KIDNEY_R: 0.9 g
  KIDNEY_TOTAL: 1.8 g
  LIVER: 8.4 g
  A/G: 2
  ALP: 865.4 IU/L
  ALT: 40.6 IU/L
  AST: 70 IU/L
  BUN: 9 mg/dL
  CRE: 0.5 mg/dL
  Ca: 10.8 mg/dL
  Cl: 102.6 meq/L
  DBIL: 0.068 mg/dL
  GLC: 195.8 mg/dL
  IP: 9.7 mg/dL
  K: 4.6 meq/L
  LDH: 104.8 IU/L
  Na: 138.8 meq/L
  PL: 141.4 mg/dL
  RALB: 3.5 g/dL
  TBIL: 0.4 mg/dL
  TC: 82.8 mg/dL
  TG: 46.8 mg/dL
  TP: 5.3 g/dL
  gamma-GTP: 1.6 IU/L
9 h
  TERMINAL_BW: 190.6 g
  APTT: 17.1 s
  Bas: 0%
  Eos: 1%
  Fbg: 201.2 mg/dL
  Hb: 12.6 g/dL
  Ht: 38.1%
  Lym: 70.4%
  MCH: 21.6 pg
  MCHC: 33%
  MCV: 65.6 fL
  Mono: 8%
  Neu: 21%
  PT: 12.1 s
  Plat: 119.4 x10_4/uL
  RBC: 580.8 x10_4/ul
  Ret: 10.6%
  WBC: 83.7 x10_2/uL
  KIDNEY_L: 0.9 g
  KIDNEY_R: 0.9 g
  KIDNEY_TOTAL: 1.8 g
  LIVER: 8.1 g
  A/G: 2.2
  ALP: 827.2 IU/L
  ALT: 34.6 IU/L
  AST: 64.6 IU/L
  BUN: 12.2 mg/dL
  CRE: 0.6 mg/dL
  Ca: 10.4 mg/dL
  Cl: 104.8 meq/L
  DBIL: 0.1 mg/dL
  GLC: 199.2 mg/dL
  IP: 10.3 mg/dL
  K: 5 meq/L
  LDH: 108.2 IU/L
  Na: 139 meq/L
  PL: 132 mg/dL
  RALB: 3.6 g/dL
  TBIL: 0.4 mg/dL
  TC: 82.2 mg/dL
  TG: 48.4 mg/dL
  TP: 5.2 g/dL
  gamma-GTP: 0.8 IU/L
24 h
  TERMINAL_BW: 210.7 g
  APTT: 16.3 s
  Bas: 0%
  Eos: 1%
  Fbg: 225 mg/dL
  Hb: 12.8 g/dL
  Ht: 38.6%
  Lym: 75.8%
  MCH: 21.7 pg
  MCHC: 33.2%
  MCV: 65.3 fL
  Mono: 7.6%
  Neu: 15.2%
  PT: 11.5 s
  Plat: 112.6 x10_4/uL
  RBC: 590.8 x10_4/ul
  Ret: 10.5%
  WBC: 105.8 x10_2/uL
  KIDNEY_L: 1 g
  KIDNEY_R: 1 g
  KIDNEY_TOTAL: 2 g
  LIVER: 10.6 g
  A/G: 2.1
  ALP: 875.4 IU/L
  ALT: 36.8 IU/L
  AST: 66.2 IU/L
  BUN: 15.8 mg/dL
  CRE: 0.6 mg/dL
  Ca: 11.2 mg/dL
  Cl: 100.8 meq/L
  DBIL: 0.016 mg/dL
  GLC: 207.6 mg/dL
  IP: 8.4 mg/dL
  K: 4.5 meq/L
  LDH: 120.6 IU/L
  Na: 140 meq/L
  PL: 156.4 mg/dL
  RALB: 3.8 g/dL
  TBIL: 0.3 mg/dL
  TC: 86.4 mg/dL
  TG: 114.4 mg/dL
  TP: 5.6 g/dL
  gamma-GTP: 1.4 IU/L
